Laboratory results as given in patent publication EP2364976B1, “S1P receptor modulating compounds and use thereof” (EPIX Pharmaceuticals, Inc., priority 2007, dated 2007).
Where “and” joins values, the source holds several entries; their conditions need not be identical. Equal values may be shown once.

target: T1, hS1P1 (Homo sapiens, UniProt P21453); test: hS1P1 EC50 (S1P receptor Ca2+ flux protocol, FLIPR, CHO K1 Gqi5 cells); format: cell-based; details: several values per compound = repeat determinations as printed
T1 construct: expressed in transfected cells
T1 sequence (P21453 whole entry): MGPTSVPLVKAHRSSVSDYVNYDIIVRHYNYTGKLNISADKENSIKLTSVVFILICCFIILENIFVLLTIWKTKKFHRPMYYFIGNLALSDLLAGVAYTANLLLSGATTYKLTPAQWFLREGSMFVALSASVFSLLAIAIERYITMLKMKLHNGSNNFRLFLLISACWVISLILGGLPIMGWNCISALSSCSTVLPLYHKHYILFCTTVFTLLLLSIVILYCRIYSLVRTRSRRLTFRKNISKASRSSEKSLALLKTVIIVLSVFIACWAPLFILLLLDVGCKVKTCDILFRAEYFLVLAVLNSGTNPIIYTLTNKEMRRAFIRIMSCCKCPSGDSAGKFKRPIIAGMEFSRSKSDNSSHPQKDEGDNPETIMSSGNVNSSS
Protocol: S1P receptor activity may also be measured by an SIP receptor (e.g., hS1P1, hS1P3, rS1P1, rS1P3 and parental cell) Ca^2+ Flux protocol as described below: • 1. Material • a. FLIPR buffer: 1x HBSS; 10mM HEPES • b. Cell growth media: • i. human and rat S1P1 and S1P3: F12-Ham's media; 10% FBS (qualified); 1x Pen/Strep/Glu; 300ug/mL Hygromycin; 400ug/mL Geneticin ii. Parental cell: human and rat S1P and S1P3: F12-Ham's media; 10% FBS (qualified); 1x Pen/Strep/Glu; 300ug/mL Hygromycin; • c. Cell seeding media; F12-Ham's media; 10% FBS (Charcoal/dextran stripped); 1x Pen/Strep/Glu; • d. Cell dissociation buffer: Versene from Invitrogen • e. Agonist (SIP) dissolving buffer: 0.4% (w/v) fatty-acid free BSA (Sigma # A8806) in FLIPR buffer • f. FLIPR dye: BD PBX Calcium assay kit; Cat#641077 is composed of Calcium indicator (Cat#850000) and 100x PBX signal enhancer (cat#850001). The 100x PBX signal enhancer is diluted into FLIPR buffer 1:100 and the calcium indicator is then added at 1:1000 ratio. • g. Cell plates (96-well): Greiner Cat#655090 • h. Compound plates (96-well): Costar #3365 • i. S1P stock solution preparation: S1P is purchased from CalBioChem (Catalog # 970471; 1mg vial; custom prep using methanol, & nitrogen gas drying inside glass vial; Storage @ -20°C). Dissolve 1 vial of SIP into 26.4ml of agonist dissolving buffer in a 50ml centrifuge tube; Remove label from bottle of SIP, open and drop entire bottle into tube. Sonicate at 37° for ½ hour. Clear solution of 100µM will result. This stock solution is aliquoted and stored at -80C • 2. Cell line maintenance • a. V5 tags were added at the N-terminus of hS1P1, hS1P3, rS1P1 and rS1P3. All four genes were transfected into CHO K1 cells which stably express Gqi5. • b. hS1P1 and hS1P3 were established as stable clones and rS1P1 and rS1P3 were sorted by anti V5 tag and established as stable pools after sorting. • c. Parental cell line CHO/K1 Gqi5 is used as the control. • d. All the cells are maintained in cell growth media and splitted twice a week using Versene. • e. All the cell lines are used under passage 30. • 3. Assay protocol • a. Cell seeding: Cells are lifted from the flask by Versene and seeded in cell plates at 50K/well in cell seeding media. Cells are grown overnight at 37 degree. • b. Cell loading: Cell seeding media is discarded. Cells are loaded with 50ul of FLIPR dye at RT for 90 min. Signal is stable for up to 5 h after dye loading. • c. Agonist (S1P) preparation: Frozen stock of S1P is thawed out and sonicated at 37c for 30 minutes every time before use. The stock is then diluted into FLIPR buffer at proper concentration. • d. Compound preparation: Compounds are dissolved in DMSO. A 3x, 10 point dilution of the compounds are carried out in DMSO. Then the compounds are diluted into assay buffer133x so that the DMSO concentration is 0.75%. • e. Activity measurement: The fluorescence signal change of the cells upon compound addition is monitored in FLIPRtetra. 25ul of compound is transferred into the cell plates (50ul of FLIPR dye; DMSO concentration: 0.25%). Signal is recorded for 90sec after compound addition. Then 50ul of 500nM SIP is added in the cell plate, and signal is recorded for 90 seconds upon addition. • 4. Data analysis • a. Peak value is calculated for each compound/S1P addition • b. The peak value of S1P at 200nM is used as high control (100%), and the peak value of buffer only is used as low control (0%). • c. Data is normalized against high and low controls using the following equation: POC_S = 100*(RAW-LO)/(HI-LO) [formula] • d. Peak value is plotted against the concentration of compound. • e. Curve is fitted using the 4 parameter fit: Y = (A+(B/(1+(((x/C))^(∧)D)))) [formula] where: Y is POC_S (or POC) • X is compound concentration • A is the minimum (EC50min or IC50min) • B is the maxmum (EC50max or IC50max) • C is the inflection point (EC50IP or IC50IP) • D is the hill slope (EC50 slope or IC50 slope).

| Compound | EC50 |
| --- | --- |
| O=C(O)C1CN(Cc2ccc(-c3cc4ccccc4o3)c(F)c2)C1 [Reference Compound 68, 1-(4-(benzofuran-2-yl)-3-fluoro-benzyl)azetidine-3-carboxylic acid] | 706 nM |
| O=C(O)CCN1CCc2cc(-c3cc4cc(OCC5CCCC5)ccc4o3)ccc2C1 [Reference Compound 57, 3-(6-(5-(cyclopentylmethoxy)benzofuran-2-yl)-3,4-dihydroisoquinolin.2(1H)-yl)propanoic acid] | 877 nM |
| O=C(O)C1CN(Cc2ccc(-c3cc4cc(-c5cccs5)ccc4o3)cc2)C1 [Reference Compound 28, 1-((4-(5-(thiophen-2-yl)benzofuran-2-yl)phenyl)methyl)azetidine-3-carboxylic acid] | 1800 nM |
| O=C(O)C1CN(Cc2ccc(-c3nc4ccc(Cc5ccccc5)cc4s3)c(F)c2)C1 [Reference Compound 118, 1-((4-(6-Benzylbenzo[d]thiazol-2-yl)-3-fluorophenyl)methyl)azetidine-3-carboxylic acid] | 149 nM |
| Cc1ccc(Cc2ccc3oc(-c4ccc(CN5CC(C(=O)O)C5)cc4F)cc3c2)cc1 [Reference Compound 86, 1-(3-Fluoro-4-(5-(4-methylbenzyl)benzofuran-2-yl)benzyl)azetidine-3-carboxylic acid] | 12 nM |
| O=C(O)C1CN(Cc2cc(F)c(-c3cc4cc(Cc5ccccc5)ccc4o3)c(F)c2)C1 [Reference Compound 48, 1-((4-(5-Benzylbenzofuran-2-yl)-3,5-difluorophenyl)methyl)azetidine-3-carboxylic acid] | 89 nM |
| CCCCOc1ccc2oc(-c3ccc(CN4CC(C(=O)O)C4)cc3OC)cc2c1 [Reference Compound 24] | 420 nM and 700 nM |
| O=C(O)C1CN(Cc2ccc(-c3nc4ccc(Cc5ccccc5)cc4o3)c(F)c2)C1 [Reference Compound 111, 1-((4-(6-Benzylbenzo[d]oxazol-2-yl)-3-fluorophenyl)methyl)azetidine-3-carboxylic acid] | 8 nM |
| CCCCOc1ccc2oc(-c3ccc4c(c3)CCN(CCC(=O)O)C4)cc2c1 [Reference Compound 44, 3-(6-(5-butoxybenzofuran-2-yl)-3,4-dihydroisoquinolin-2(1H)-yl)propanoic acid] | 4440 nM |
| O=C(O)C1CN(Cc2ccc(-c3cc4cc(C5CCCC5)ccc4o3)cc2)C1 [Reference Compound 30, 1-(4-(5-cyclopentylbenzofuran-2-yl)benzyl)azetidine-3-carboxylic acid] | 210 nM |
| O=C(O)C1CN(Cc2ccc(-c3cc4cc(CC5CCCCC5)ccc4o3)c(F)c2)C1 [Reference Compound 74, 1-(4-(5-(Cyclohexylmethyl)benzofuran-2-yl)-3-fluorobenzyl)azetidine-3-carboxylic acid] | 400 nM |
| CC(C)Cc1ccc2oc(-c3ccc(CN4CC(C(=O)O)C4)cc3)cc2c1 [Reference Compound 10, 1-((4-(5-isobutylbenzofuran-2-yl)phenyl)methyl)azetidine-3-carboxylic acid] | 270 nM and 490 nM and 383 nM |
| CCCCOc1ccc2oc(-c3ccc(CN4CC(C(=O)O)C4)cc3Cl)cc2c1 [Reference Compound 50, 1-((4-(5-Butoxybenzofuran-2-yl)-3-chlorophenyl)methyl)azetidine-3-carboxylic acid] | 266 nM |

The remaining lines, values ahead:

| EC50 | Compound |
| --- | --- |
| 620 nM and 334 nM | O=C(O)C1CN(Cc2ccc(-c3cc4cc(Cc5ccccc5)ccc4o3)cc2F)C1 [Reference Compound 14, 1-((4-(5-Benzylbenzofuran-2-yl)2-fluorophenyl)methyl)azetidine-3-carboxylic acid] |
| 1000 nM and 1900 nM and 196 nM | COc1cc(CN2CC(C(=O)O)C2)ccc1-c1cc2cc(Cc3ccccc3)ccc2o1 [Reference Compound 33, 1-((4-(5-benzylbenzofuran-2-yl)-3-methoxyphenyl)methyl)azetidine-3-carboxylic acid] |
| 860 nM and 307 nM | O=C(O)C1CN(Cc2ccc(-c3cc4cc(N5CCCCC5)ccc4o3)c(F)c2)C1 [Reference Compound 31, 1-(3-fluoro-4-(5-(piperidin-1-yl)benzofuran-2-yl)benzyl)azetidine-3-carboxylic acid] |
| 99 nM | CC(c1ccccc1)c1ccc2oc(-c3ccc(CN4CC(C(=O)O)C4)cc3F)cc2c1 (stereo not shown) [Reference Compound 90, 1-((3-Fluoro-4-(5-(1-phenylethyl)benzofuran-2-yl)phenyl)methyl)azetidine-3-carboxylic acid] |
| 1320 nM | O=C(O)C1CN(Cc2cnc(-c3cc4cc(Cc5ccccc5)ccc4o3)nc2)C1 [Reference Compound 121, 1-((2-(5-Benzylbenzofuran-2-yl)pyrimidin-5-yl)methyl)azetidine-3-carboxylic acid] |
| 2300 nM | NC(=O)CC(NCc1ccc(-c2cc3cc(Cc4ccccc4)ccc3o2)c(F)c1)C(=O)O (stereo not shown) [Reference Compound 83, 4-Amino-2-(4-(5-benzylbenzofuran-2-yl)-3-fluorobenzylamino)-4-oxobutanoic acid] |
| 720 nM and 302 nM | O=C(O)C1CN(Cc2ccc(-c3cc4cc(C5CCCCC5)ccc4o3)nc2)C1 [Reference Compound 17, 1-((6-(5-cyclohexylbenzofuran-2-yl)pyridin-3-yl)methyl)azetidine-3-carboxylic acid] |
| 80 nM | O=C(c1ccccc1)c1ccc2oc(-c3ccc(CN4CC(C(=O)O)C4)cc3F)cc2c1 [Reference Compound 102, 1-((4-(5-Benzoylbenzofuran-2-yl)-3-fluorophenyl)methyl)azetidine-3-carboxylic acid] |
| 109 nM | O=C(O)C1CN(Cc2ccc(-c3cc4cc(OCC5CC5)ccc4o3)c(F)c2)C1 [Reference Compound 49] |
| 510 nM and 92 nM | O=C(O)C1CN(Cc2ccc(-c3cc4cc(Oc5ccccc5)ccc4o3)cc2)C1 [Reference Compound 19, 1-(4-(5-phenoxybenzofuran-2-yl)benzyl)azetidine-3-carboxylic acid] |
| 160 nM and 38 nM | O=C(O)C1CN(Cc2ccc(-c3cc4cc(Cc5ccccc5)ccc4o3)c(F)c2)C1 [Reference Compound 15, 1-((4-(5-Benzylbenzofuran-2-yl)-3-fluorophenyl)methyl)azetidine-3-carboxylic acid] |
| 2090 nM | Fc1cc(CN2CC(c3nn[nH]n3)C2)ccc1-c1cc2cc(Cc3ccccc3)ccc2o1 [Reference Compound 78, 5-(1-(4-(5-Benzylbenzofuran-2-yl)-3-fluorobenzyl)azetidin-3-yl)-2H-tetrazole] |
| 3100 nM | CCCCc1ccc2oc(-c3ccc(CN4CCC(C(=O)O)CC4)cc3)cc2c1 [Reference Compound 8, 1-((4-(5-Butylbenzofuran-2yl)phenyl)methyl)pineridine-4-carbocylic acid] |
| 1500 nM | O=C(O)C1CN(Cc2ccc(-c3cc4cc(N5CCCCC5)ccc4o3)cc2)C1 [Reference Compound 34, 1-(4-(5-(piperidin-1-yl)benzofuran-2-yl)benzyl)azetidine-3-carboxylic acid] |
| 4830 nM | O=C(O)C1CN(Cc2cccc(-c3cc4cc(Cc5ccccc5)ccc4o3)c2)C1 [Reference Compound 96, 1-(3-(5-Benzylbenzofuran-2-yl)benzyl)azetidine-3-carboxylic acid] |
